According to ChEMBL document CHEMBL6182881, “Optimized ebselen derivatives as novel potent Escherichia coli β-glucuronidase covalent allosteric inhibitors” (Eur J Med Chem, 2025):
The source made the active and inactive calls. The calls are words filed in the database; no cut-off is given here.

Columns and labels:
[1] = system: Escherichia coli; assay: Covalent allosteric inhibition of recombinant Escherichia coli beta-glucuronidase using PNPG as substrate at 10 uM incubated for 30 mins by absorbance based microplate reader assay relative to control
[2] = Covalent allosteric inhibition of recombinant Escherichia coli beta-glucuronidase using PNPG as substrate incubated for 30 mins by absorbance based microplate reader assay
[3] = Covalent inhibition of Escherichia coli beta-glucurodinase
[4] = system: Escherichia coli; assay: Covalent binding affinity to recombinant Escherichia coli beta-glucuronidase at Cys443 residue by LC-MS/MS analysis
[5] = system: Escherichia coli; assay: Covalent binding affinity to recombinant Escherichia coli beta-glucuronidase at Cys28 residue by LC-MS/MS analysis
[6] = system: Escherichia coli; assay: Potency index, ratio of IC50 for amoxapine to test compound IC50 for covalent allosteric inhibition of recombinant Escherichia coli beta-glucuronidase using PNPG as substrate incubated for 30 mins by absorbance based microplate reader assay
[7] = system: Escherichia coli; assay: Covalent reversible binding affinity to recombinant Escherichia coli beta-glucuronidase using PNPG as substrate at 10 times IC50 pre-incubated for 30 mins followed by substrate addition by jump dilution assay
[8] = Covalent reversible binding affinity to recombinant Escherichia coli beta-glucuronidase assessed as apparent inhibition constant incubated for 30 mins; details: read-out: Ki(app)
[9] = system: Escherichia coli; assay: Covalent binding affinity to recombinant Escherichia coli beta-glucuronidase at Cys197 residue by LC-MS/MS analysis
[10] = Cytotoxicity against human HCT-116 cells assessed as cell viability at 5 uM incubated for 24 hrs by CCK-8 assay relative to control; format: toxicity, cell-based; details: read-out: Activity
[11] = Binding affinity to Escherichia coli beta-glucuronidase assessed as inhibition constant
[12] = system: Escherichia coli; assay: Covalent irreversible binding affinity to recombinant Escherichia coli beta-glucuronidase assessed as inactivation constant incubated for 30 mins
[13] = system: Escherichia coli; assay: Covalent irreversible binding affinity to recombinant Escherichia coli beta-glucuronidase using PNPG as substrate at 10 times IC50 pre-incubated for 30 mins followed by substrate addition by jump dilution assay
[14] = system: Escherichia coli; assay: Covalent irreversible binding affinity to recombinant Escherichia coli beta-glucuronidase assessed as kinact/ki ratio incubated for 30 mins
[15] = Covalent irreversible binding affinity to recombinant Escherichia coli beta-glucuronidase assessed as inhibition constant incubated for 30 mins

SMILES: CN(C)CCn1[se]c2ccccc2c1=O
- inhibition [1]: > 90%

SMILES: C=CCn1[se]c2ccccc2c1=O
- inhibition [1]: > 90%

SMILES: C=CCCn1[se]c2ccccc2c1=O
- inhibition [1]: < 90%

SMILES: Cc1nnc(-n2[se]c3ccccc3c2=O)o1
- inhibition [1]: 97.5%
- IC50 [2]: 116 nM

SMILES: O=c1c2ccccc2[se]n1-c1nnc(C2CCC(F)(F)CC2)s1
- inhibition [1]: < 90%

SMILES: O=c1c2ccccc2[se]n1-c1nnc(C(F)(F)F)s1
- inhibition [1]: 93.7%
- IC50 [2]: 188 nM

SMILES: O=c1c2ccccc2[se]n1C1CCCCC1
- inhibition [1]: < 90%

SMILES: O=c1c2ccccc2[se]n1-c1ccc(F)cc1
- inhibition [1]: > 90%

SMILES: CCc1nnc(-n2[se]c3ccccc3c2=O)s1
- inhibition [1]: < 90%

SMILES: O=c1[nH][se]c2ccccc12
- inhibition [1]: 72.1%

SMILES: O=c1c2ccccc2[se]n1-c1nccs1
- inhibition [1]: < 90%

SMILES: Oc1ccccc1-c1nc2cc(Cl)cc(Cl)c2[nH]1
- IC50 [3]: 4480 nM

SMILES: O=c1c2ccccc2[se]n1-c1cccnc1
- inhibition [1]: > 90%

SMILES: COC(=O)[C@H](CC(C)C)NC(=O)Cn1[se]c2ccccc2c1=O
- inhibition [1]: > 90%

SMILES: O=c1c2ccccc2[se]n1CC(F)(F)F
- inhibition [1]: 94.7%
- IC50 [2]: 76.9 nM

SMILES: O=c1c2ccccc2[se]n1-c1cc(C2CC2)[nH]n1
- inhibition [1]: < 90%

SMILES: O=c1c2ccccc2[se]n1-c1ccc(C(F)(F)F)cc1
- inhibition [1]: < 90%

SMILES: O=c1c2ccccc2[se]n1-c1ccc2[nH]ncc2c1
- inhibition [1]: < 90%

SMILES: O=c1c2ccccc2[se]n1-c1ccc(Cl)cc1
- inhibition [1]: 94.3%
- IC50 [2]: 127 nM

SMILES: O=c1c2ccccc2[se]n1C12CC3CC(CC(C3)C1)C2
- inhibition [1]: < 90%

SMILES: CCn1[se]c2ccccc2c1=O
- inhibition [1]: < 90%

SMILES: O=c1c2ccccc2[se]n1-c1cn[nH]c1
- inhibition [1]: 98.3%
- IC50 [2]: 12.9 nM
- Activity [4]: Active
- Activity [5]: Active
- Ratio IC50 [6]: 15.6
- Activity [7]: Active
- Ki [8]: 23.3 nM
- Activity [9]: Active
- viability at 24 h, 5 µM [10]: 71.5%

SMILES: O=c1c2ccccc2[se]n1-c1nnc(CC(F)(F)F)s1
- inhibition [1]: 6.11%

SMILES: COC(=O)[C@H](CCCCNC(=O)OC(C)(C)C)n1[se]c2ccccc2c1=O
- inhibition [1]: 94.4%
- IC50 [2]: 66.5 nM
- viability at 24 h, 5 µM [10]: 86.2%

SMILES: COC(=O)[C@H](Cc1c[nH]c2ccccc12)n1[se]c2ccccc2c1=O
- inhibition [1]: > 90%

SMILES: COC(=O)[C@H](Cc1ccc(O)cc1)n1[se]c2ccccc2c1=O
- inhibition [1]: 96.9%
- IC50 [2]: 21.2 nM
- viability at 24 h, 5 µM [10]: 86.2%

SMILES: COC(=O)c1ccc2c(=O)n(-c3cccc4cccnc34)[se]c2c1
- inhibition [1]: 98.4%
- IC50 [2]: 63.4 nM

SMILES: Clc1ccc2c(c1)C(N1CCNCC1)=Nc1ccccc1O2 [AMOXAPINE]
- inhibition [1]: 88.9%
- IC50 [2]: 202 nM
- Ki [11]: 180 nM

SMILES: O=c1c2ccccc2[se]n1-c1ncc(C(F)(F)F)cc1Cl
- inhibition [1]: < 90%

SMILES: COC(=O)[C@H](CO)n1[se]c2ccccc2c1=O
- inhibition [1]: 93.8%
- IC50 [2]: 48.2 nM
- viability at 24 h, 5 µM [10]: 86.2%

SMILES: O=c1c2ccccc2[se]n1-c1ccccn1
- inhibition [1]: < 90%

SMILES: O=c1c2ccccc2[se]n1CCO
- inhibition [1]: 96.2%
- IC50 [2]: 18.3 nM
- viability at 24 h, 5 µM [10]: 86.2%

SMILES: Cc1nnc(-n2[se]c3ccccc3c2=O)s1
- inhibition [1]: < 90%

SMILES: O=c1c2ccccc2[se]n1-c1nncs1
- inhibition [1]: < 90%

SMILES: CN1CCC(n2[se]c3ccccc3c2=O)CC1
- inhibition [1]: 93.9%
- IC50 [2]: 58.5 nM

SMILES: CNC(=O)c1cc(Oc2ccc(-n3[se]c4ccccc4c3=O)cc2)ccn1
- inhibition [1]: 96.2%
- IC50 [2]: 446 nM
- viability at 24 h, 5 µM [10]: 86.2%

SMILES: O=c1c2ccccc2[se]n1-c1ccccc1
- inhibition [1]: < 90%

SMILES: COC(=O)[C@H](CSC)n1[se]c2ccccc2c1=O
- inhibition [1]: > 90%

SMILES: Cc1ccc2c(=O)n(Cc3ccccc3)[se]c2c1
- inhibition [1]: < 90%

SMILES: CC(C)c1nnc(-n2[se]c3ccccc3c2=O)s1
- inhibition [1]: < 90%

SMILES: Cn1cc(-n2[se]c3ccccc3c2=O)cn1
- inhibition [1]: 94.8%
- IC50 [2]: 42.1 nM

SMILES: O=c1c2ccccc2[se]n1-c1ccc2[nH]ccc2c1
- inhibition [1]: > 90%

SMILES: CCCc1nnc(-n2[se]c3ccccc3c2=O)s1
- inhibition [1]: < 90%

SMILES: CC(=O)OC[C@H]1O[C@@H](n2cnc3c(-n4[se]c5ccccc5c4=O)ncnc32)[C@H](OC(C)=O)[C@@H]1OC(C)=O
- inhibition [1]: 98.8%
- IC50 [2]: 73.4 nM
- Kinact [12]: 7.6 min⁻¹
- Activity [13]: Active
- Activity [9]: Active
- K [14]: 21300 M⁻¹ s⁻¹
- viability at 24 h, 5 µM [10]: 81%
- Ki [15]: 5950 nM

SMILES: O=c1c2ccccc2[se]n1-c1nnc(C2CCCC2)s1
- inhibition [1]: < 90%

SMILES: O=C(O)c1ccc(-n2[se]c3ccccc3c2=O)cc1
- inhibition [1]: 96.8%
- IC50 [2]: 55.7 nM
- viability at 24 h, 5 µM [10]: 86.2%

SMILES: O=c1c2cc(Br)ccc2[se]n1-c1ccccc1
- inhibition [1]: < 90%

SMILES: O=c1c2ccccc2[se]n1-c1cnc2[nH]ncc2c1
- inhibition [1]: < 90%

SMILES: COc1ccc(-n2[se]c3ccccc3c2=O)cc1
- inhibition [1]: < 90%

SMILES: O=c1[nH][se]c2ccc(C(F)(F)F)cc12
- inhibition [1]: < 90%

SMILES: Cc1cc(-n2[se]c3ccccc3c2=O)n[nH]1
- inhibition [1]: < 90%

SMILES: CC(C)(C)c1nnc(-n2[se]c3ccccc3c2=O)s1
- inhibition [1]: > 90%
